The subject of one experiment is Akt. Nature of the experiment: Western blot of Akt phosphorylation in rat primary cortical neurons (Shank3 knock down vs control). The format is cell-based. The note with it: for phosphorylation of Akt T308: 10 μM TG003, 60 minutes, DIV 16. The text has this:
E18 primary rat cortical neurons were dissected, cultured and infected 6 days after plating (DIV6) with indicated lentiviruses at MOI 10, as previously described (Proenca et al., 2013). Lentiviruses were produced by calcium phosphate transfection of HEK293T cells with packaging plasmids (Life Technologies) and transfer plasmid in 10 cm dishes. Cells were transferred to fresh medium 6 hrs. post-transfection. Four days post-transfection, the cell medium was collected and pooled from several dishes, cleared of cellular debris by 0.45 μm filtration, and concentrated 100× by centrifugation at 19,000 g for 90 min in a Beckman Ultracentrifuge using a SW28/SW32 rotor. Pellets were suspended in PBS/0.5% BSA and viral titer was determined by ELISA quantification of viral p24 antigen (Zeptometrix Corp, USA). For shRNA plasmid generation, oligonucleotides were annealed and ligated into lentiviral transfer plasmid pLKO.1-GFP vector at the AgeI/EcoRI sites. The target sequences of shRNAs that target rat and mouse Shank3 (5′-3′) are: […] […] (SEQ ID NO: 2), and […] (SEQ ID NO: 3). The latter was previously reported (Verpelli et al., 2011). A luciferase-targeting sequence was used as an shRNA control: […] (SEQ ID NO: 4).
For immunoprecipitation (IP) of HA-tagged Akt, neurons were lysed in IP buffer (20 mM Tris-HCl pH 7.4, 3 mM EDTA, 3 mM EGTA, 150 mM NaCl, 0.5% NP-40, and protease/phosphatase inhibitor cocktails (Roche)). Lysates were cleared by centrifugation at 13,000 rpm for 10 min and lysates normalized for protein abundance were immunoprecipitated with rabbit HA-tag antibody for 1 h at 4° C. Immuno-complexes were then captured by incubation for an additional 1 hr with Protein A agarose beads (Roche). Beads were washed three times with IP buffer and bound proteins were eluted with 2×SDS-PAGE sample buffer, then boiled for 5 min. For IP and analysis of ubiquitinated Myc-Clk2, neurons were lysed in Ubiquitin IP buffer (20 mM Tris-HCl pH 7.4, 3 mM EDTA, 3 mM EGTA, 150 mM NaCl, 1% Triton X-100, protease/phosphatase inhibitor cocktails (Roche), 5 mM N-ethylmaleimide, and 3 mM iodoacetamide) containing 1% SDS. Lysates were boiled for 20 min to denature proteins and then centrifuged for 10 min at 13,000 rpm. Lysates were subsequently diluted to 0.1% SDS with Ubiquitin IP buffer and immunoprecipitated with Myc antibody for 1 h. Complexes were then captured by addition of Protein G agarose (Roche) and additional 1 h incubation. Beads were washed 3× and eluted with 2×SDS-PAGE sample buffer, then boiled for 5 min. Samples prepared for SDS-PAGE were then resolved on 4-12% Novex gels (Life Technologies), transferred to PVDF membranes, blocked in 5% low-fat milk in TBS/0.1% Tween-20, and incubated overnight with primary antibodies. After washing and 1 h incubation with secondary antibodies, proteins were visualized by Chemiluminescent detection (Amersham-GE Healthcare Life Sciences).
To determine whether Shank3 deficiency impacts the PI3K-Akt-mTOR signaling pathway (FIG. 1A, gray highlight), lentiviral-mediated delivery of shRNAs was used to knock-down Shank3 in rat primary cortical neuron cultures. Cultured rat primary cortical neurons were transduced with lentiviruses encoding control shRNA or Shank3-shRNA at six days in vitro (DIV 6) and treated with BDNF (50 ng/ml) for 15 or 30 min at 14-16 days in vitro (DIV 14-16). Cell lysates were prepared in RIPA buffer prior to resolution by SDS-PAGE and Western blotting.
Cortical neurons, transduced with shRNA-expressing lentiviruses on DIV 6, were treated with 50 ng/ml BDNF or okadaic acid (100 nM) on DIV 16 and cell lysates were resolved by SDS-PAGE, followed by Western blotting.
In general terms: In western blotting, separated proteins are transferred to a membrane and probed.

Another experiment concerns rpS6. Nature of the experiment: Western blot of rpS6 phosphorylation in Shank3 knock down primary neurons. The experiment is classed as cell-based, rat. The text has this:
E18 primary rat cortical neurons were dissected, cultured and infected 6 days after plating (DIV6) with indicated lentiviruses at MOI 10, as previously described (Proenca et al., 2013). Lentiviruses were produced by calcium phosphate transfection of HEK293T cells with packaging plasmids (Life Technologies) and transfer plasmid in 10 cm dishes. Cells were transferred to fresh medium 6 hrs. post-transfection. Four days post-transfection, the cell medium was collected and pooled from several dishes, cleared of cellular debris by 0.45 μm filtration, and concentrated 100× by centrifugation at 19,000 g for 90 min in a Beckman Ultracentrifuge using a SW28/SW32 rotor. Pellets were suspended in PBS/0.5% BSA and viral titer was determined by ELISA quantification of viral p24 antigen (Zeptometrix Corp, USA). For shRNA plasmid generation, oligonucleotides were annealed and ligated into lentiviral transfer plasmid pLKO.1-GFP vector at the AgeI/EcoRI sites. The target sequences of shRNAs that target rat and mouse Shank3 (5′-3′) are: […] (SEQ ID NO: 1), […] (SEQ ID NO: 2), and […] (SEQ ID NO: 3). The latter was previously reported (Verpelli et al., 2011). A luciferase-targeting sequence was used as an shRNA control: […] (SEQ ID NO: 4). […]

Where [1] appears, read: Shank3 knock down primary neurons, SC79 treatment.

Data on two compounds can be found in US20180296537A1, “METHODS AND COMPOSITIONS FOR DIAGNOSING, TREATING, AND MONITORING TREATMENT OF SHANK3 DEFICIENCY ASSOCIATED DISORDERS” (Novartis AG, priority 2015, published 2018).

Molecules are shown by their SMILES.

Turning to `CCOC(=O)C1=C(N)Oc2ccc(Cl)cc2C1C(C#N)C(=O)OCC` (centres unmarked) [SC79], the Akt phosphorylation entry with Akt (setting [1]) was “restored Akt and rpS6 phosphorylation”. The rpS6 phosphorylation result with rpS6 (setting [1]) was “restored Akt and rpS6 phosphorylation”.
As for `CCN1/C(=C/C(C)=O)Sc2ccc(OC)cc21` [TG003, (Z)-1-(3-ethyl-5-methoxy-2,3-dihydrobenzothiazol-2-ylidene)propan-2-one], the “phosphorylation of Akt T308” value was “restored to control levels in Shank3 knock down neurons” with Akt (Shank3 knock down neurons) and “refractory to TG003” with Akt (control neurons). Further, the rpS6 phosphorylation result with rpS6 (Shank3 knock-down (shShank3) neurons, TG003 (FIG. 3F)) was “restores Akt and rpS6 phosphorylation”.
